From EP0311616B1, “COMBINATIONS OF GAMMA INTERFERONS AND ANTI-INFLAMMATORY OR ANTI-PYRETIC AGENTS FOR TREATING DISEASES” (BIOGEN, INC., priority 1986, dated 1987)
Read-outs that look alike come from different tables or passages of the source.

Key:
[1] = tested on: BL/MEX6 human melanoma; test: six day Subrenal Capsule Assay, tumor xenograft implanted under the renal capsule of normal immunocompetent mice; type: in vivo; details: for Avg. Δ Tumor Size (mean ± S.D.): change Day 6-Day 0; for Tumor Response: summary of Examples 1-3, IFN-γ i.m., cortisone and prednisone s.c., all other agents p.o., b.i.d., QD1-5, significance of inhibition vs control
Source text: (§1) In each example, following the standardized protocol for the Subrenal Capsule™ Assay [A.E. Bogden, P.M. Haskell, D.J. LePage, D.E. Kelton, W.R. Cobb, H.J. Esber, "Growth Of Human Tumor Xenografts Implanted Under The Renal Capsule Of Normal Immunocompetent Mice", Exp. Cell Biology, 47, pp. 281-93 (1979)], we implanted BL/MEX6 human melanoma established in serial transplantation (Bogden Laboratories) under the renal capsule of normal, immunocompetent mice (BALB/c × DBA/2) F₁ (CDF₁) (Examples 1 and 2) and into (B6C3F₁) mice (Example 3). Each mouse weighed approximately 25 grams. We then divided the mice into treatment groups as follows: group 1: 10 mice, groups 2-7: 8 mice each.
Over a five-day period, we treated each of groups 4-7 of mice with one of the following anti-inflammatory agents or anti-pyretic agents, either singly or in combination with IFN-γ (IFN-γ dosage: 2,000 µg/Kg/inj., b.i.d., i.m.):
The anti-inflammatory agents or anti-pyretic agents were administered prior to IFN-γ in all combination treatment groups. In each example, we treated groups 1-3 of mice as follows: Group 1: 0.25 ml/inj., b.i.d., i.m. PBS (vehicle treated control) Group 2: 400 mg/Kg/inj., s.c. DTIC [dacarbazine] (positive chemotherapy control) Group 3: 2,000 µg/Kg/inj., b.i.d., i.m. IFN-γ
(§2) In each example, for each mouse, we recorded initial body weight, implanted a tumor and recorded an initial in situ tumor measurement (two diameters) in ocular micrometer units (omu). We administered treatment on days 1-5. Survivors were recorded and any mice dying prior to sacrifice were necropsied. On day 6, the mice were sacrificed, final body weights were recorded, implanted kidneys were removed and final in situ tumor measurements were made to determine tumor growth inhibition or regression. We calculated the ratio of average final body weight to initial body weight (FBW/IBW) to monitor systemic toxicity. Change in (Δ) tumor size between day of sacrifice (day 6) and day of tumor implant (day 0) was calculated individually and for each group.

[2] = day 6
Source text: as §1, §2

[3] = Example 2, (BALB/c × DBA/2) F1 (CDF1) mice, treatment QD1-5 at doses of Table III
[4] = Example 2, CDF1 mice, treatment QD1-5 at doses of Table III, day 6
[5] = Example 2, CDF1 mice, treatment QD1-5 at doses of Table III
[6] = Example 3, (B6C3F1) mice, treatment QD1-5 at doses of Table V
[7] = Example 3, B6C3F1 mice, treatment QD1-5 at doses of Table V, day 6
[8] = Example 3, B6C3F1 mice, treatment QD1-5 at doses of Table V
[9] = Example 1, (BALB/c × DBA/2) F1 (CDF1) mice, treatment QD1-5 at doses of Table I
[10] = Example 1, CDF1 mice, treatment QD1-5 at doses of Table I, day 6
[11] = Example 1, CDF1 mice, treatment QD1-5 at doses of Table I

SMILES | Avg. Δ Tumor Size (mean ± S.D.) [1, 3] | Percent Test/Control [1, 4] | Test-Control (Δ tumor size (test) minus Δ tumor size (control), degree of tumor inhibition) [1, 4] | Tumor Response [1] | FBW/IBW (Final Body Weight/Initial Body Weight) [2, 5] | Avg. Δ Tumor Size (mean ± S.D.) [1, 6] | Percent Test/Control [1, 7] | Test-Control (Δ tumor size (test) minus Δ tumor size (control), degree of tumor inhibition) [1, 7] | FBW/IBW (Final Body Weight/Initial Body Weight) [2, 8] | Avg. Δ Tumor Size (mean ± S.D.) [1, 9] | Percent Test/Control [1, 10] | Test-Control (Δ tumor size (test) minus Δ tumor size (control), degree of tumor inhibition) [1, 10] | FBW/IBW (Final Body Weight/Initial Body Weight) [2, 11] | R = regression from original size using the formula FTS (final tumor size)-ITS (initial tumor size)/ITS x 100 ([1]; Example 2, CDF1 mice, printed as R plus number in the Percent Test/Control column, day 6) | R = regression from original size using the formula (FTS-ITS)/ITS x 100 ([1]; Example 3, B6C3F1 mice, printed as R plus number in the Percent Test/Control column, day 6)
CC(=O)Oc1ccccc1C(=O)O [ASA, acetyl salicylic acid] | 3.2±1.95 omu | 80% | -0.80 omu | - | 0.93 |  |  |  |  |  |  |  |  |  | 
CC(=O)Nc1ccc(O)cc1 [Acetaminophen] | 1.9±1.46 omu | 48% | -2.10 omu | ++ (Significant inhibition p<0.01) |  |  |  |  |  |  |  |  |  |  | 
C[C@]12CCC(=O)C=C1CC[C@@H]1[C@@H]2C(=O)C[C@@]2(C)[C@H]1CC[C@]2(O)C(=O)CO [Cortisone] |  |  |  | + (Significant inhibition p<0.05) |  | 1.3±1.73 omu | 37% | -2.20 omu | 0.96 |  |  |  |  |  | 
C[C@]12C=CC(=O)C=C1CC[C@@H]1[C@@H]2C(=O)C[C@@]2(C)[C@H]1CC[C@]2(O)C(=O)CO [Prednisone] |  |  |  | ++ (Significant inhibition p<0.01) |  | 0.6±1.57 omu | 17% | -2.90 omu |  |  |  |  |  |  | 
COc1ccc2cc([C@H](C)C(=O)O)ccc2c1 [Naproxen] |  |  |  | - |  |  |  |  |  | 2.8±1.28 omu | 76% | -0.90 omu | 0.99 |  | 
COc1ccc2c(c1)c(CC(=O)O)c(C)n2C(=O)c1ccc(Cl)cc1 [Indomethacin] |  |  |  | - |  |  |  |  |  | 3.1±1.69 omu | 84% | -0.60 omu | 0.98 |  | 
CN(C)/N=N/c1[nH]cnc1C(N)=O [DTIC, dacarbazine] | -0.2±0.70 omu |  | -4.20 omu |  | 0.81 | -0.2±1.00 omu |  | -3.70 omu | 0.81 | 0.5±0.7 omu | 14% | -3.20 omu | 0.86 | R2% | R2%
